Experimental data published in PubChem BioAssay (NCI).
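Where inhibition never reached the appropriate level, the endpoint shown equals the highest concentration tested. Otherwise, values were interpolated linearly from a five-concentration, 48-hour dose response in 96-well plates. GI50 = concentration required for 50% inhibition of growth. TGI marks complete inhibition of growth.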

How the values were obtained:
Assay in all cases: DTP human tumour cell line panel, 48 h
[1] = tested on: SW-620 colon
[2] = tested on: NCI-H460 lung
[3] = tested on: SK-MEL-28 melanoma
[4] = tested on: HCT-15 colon
[5] = tested on: OVCAR-4 ovarian
[6] = tested on: SK-MEL-5 melanoma
[7] = tested on: UACC-257 melanoma
[8] = tested on: NCI-H226 lung
[9] = tested on: SF-268 CNS
[10] = tested on: NCI-H23 lung

S=C1NCCN1C1=Nc2ccccc2CO1
GI50 [1]: > 100 µM | TGI [1]: > 100 µM | GI50 [2]: > 100 µM | TGI [2]: > 100 µM | GI50 [3]: > 100 µM | TGI [3]: > 100 µM | GI50 [4]: > 100 µM | TGI [4]: > 100 µM | GI50 [5]: > 100 µM | TGI [5]: > 100 µM | GI50 [6]: 41.7 µM | TGI [6]: 99.4 µM | GI50 [7]: > 100 µM | TGI [7]: > 100 µM | GI50 [8]: > 100 µM | TGI [8]: > 100 µM | GI50 [9]: > 100 µM | TGI [9]: > 100 µM | GI50 [10]: > 100 µM | TGI [10]: > 100 µM

O=C(/C=C(\[O-])c1ccccc1)CCCCCCC(=O)/C=C(\[O-])c1ccccc1.O=C(/C=C(\[O-])c1ccccc1)CCCCCCC(=O)/C=C(\[O-])c1ccccc1.O=C(/C=C(\[O-])c1ccccc1)CCCCCCC(=O)/C=C(\[O-])c1ccccc1.[La+3].[La+3]
GI50 [1]: > 50 µM | TGI [1]: > 50 µM | GI50 [2]: > 50 µM | TGI [2]: > 50 µM | GI50 [3]: > 50 µM | TGI [3]: > 50 µM | GI50 [4]: > 50 µM | TGI [4]: > 50 µM | GI50 [5]: > 50 µM | TGI [5]: > 50 µM | GI50 [6]: > 50 µM | TGI [6]: > 50 µM | GI50 [7]: > 50 µM | TGI [7]: > 50 µM | GI50 [8]: > 50 µM | TGI [8]: > 50 µM | GI50 [9]: > 50 µM | TGI [9]: > 50 µM | GI50 [10]: > 50 µM | TGI [10]: > 50 µM

O=C1/C(=C/c2ccccc2)CN(C(=O)Oc2ccc(Cl)cc2)C/C1=C\c1ccccc1
TGI [1]: 2.77 µM | TGI [2]: 9.84 µM | TGI [3]: 4.26 µM | TGI [4]: 2.73 µM | TGI [5]: 3.52 µM | TGI [6]: 4.14 µM | TGI [7]: 4.33 µM | TGI [8]: 16.6 µM | TGI [9]: 8.77 µM | TGI [10]: 11.1 µM

COc1cc([C@@H]2c3cc4c(cc3[C@@H](NC(=O)c3cccc([N+](=O)[O-])c3)C3COC(=O)[C@@H]32)OCO4)cc(OC)c1O (stereo not given in full)
TGI [1]: 24.3 µM | TGI [2]: 1.32 µM | TGI [3]: > 43.8 µM | TGI [4]: 4.31 µM | TGI [5]: > 89.5 µM | TGI [6]: 3.65 µM | TGI [7]: > 100 µM | TGI [8]: 1.02 µM | TGI [9]: 10.7 µM | TGI [10]: 1.11 µM

COC(=O)c1c2c(c(C)[n+]([O-])c1C)C(=O)C=CC2=O
GI50 [1]: 1.54 µM | TGI [1]: 3.74 µM | GI50 [2]: 2.72 µM | TGI [2]: 7.4 µM | GI50 [3]: 1.96 µM | TGI [3]: 3.6 µM | GI50 [4]: 1.43 µM | TGI [4]: 3.31 µM | GI50 [5]: 1.2 µM | TGI [5]: 2.47 µM | GI50 [6]: 1.14 µM | TGI [6]: 2.41 µM | GI50 [7]: 1.57 µM | TGI [7]: 3.34 µM | GI50 [8]: 1.42 µM | TGI [8]: 2.98 µM | GI50 [9]: 2.05 µM | TGI [9]: 5.52 µM | GI50 [10]: 1.63 µM | TGI [10]: 4.27 µM

C[C@@H]1Cc2c([nH]c3ccccc23)[C@@H](c2c(F)cc(/C=C/C(=O)O)cc2F)N1CC(C)(C)F
GI50 [1]: 12.5 µM | TGI [1]: 29 µM | GI50 [2]: 11.5 µM | TGI [2]: 27.8 µM | GI50 [3]: 13.1 µM | TGI [3]: 30.9 µM | GI50 [4]: 8.14 µM | TGI [4]: 24.3 µM | GI50 [5]: 15.2 µM | TGI [5]: 52.8 µM | GI50 [6]: 10.7 µM | TGI [6]: 24.4 µM | GI50 [7]: 21.7 µM | TGI [7]: 49.7 µM | GI50 [8]: 18.2 µM | TGI [8]: 45.2 µM | GI50 [9]: 14.2 µM | TGI [9]: 31.8 µM | GI50 [10]: 11.2 µM | TGI [10]: 33.8 µM

Cn1c(-c2nonc2N)nc2cnccc21
GI50 [1]: > 25 µM | TGI [1]: > 25 µM | GI50 [2]: > 25 µM | TGI [2]: > 25 µM | GI50 [3]: > 25 µM | TGI [3]: > 25 µM | GI50 [4]: > 25 µM | TGI [4]: > 25 µM | GI50 [5]: > 25 µM | TGI [5]: > 25 µM | GI50 [6]: > 25 µM | TGI [6]: > 25 µM | GI50 [7]: > 25 µM | TGI [7]: > 25 µM | GI50 [8]: > 25 µM | TGI [8]: > 25 µM | GI50 [9]: > 25 µM | TGI [9]: > 25 µM | GI50 [10]: > 25 µM | TGI [10]: > 25 µM

O=C1CCC(NC(=O)c2ccccc2)C(=O)N1 (stereo not given)
TGI [1]: > 100 µM | TGI [2]: > 100 µM | TGI [3]: > 100 µM | TGI [4]: > 100 µM | TGI [5]: > 100 µM | TGI [6]: > 100 µM | TGI [7]: > 100 µM | TGI [8]: > 100 µM | TGI [9]: > 100 µM | TGI [10]: > 100 µM

CC1(C)N=C(N)N=C(N)N1c1ccc(CCCCc2ccc(S(=O)(=O)F)cc2Cl)c(Cl)c1
TGI [1]: 360 µM | TGI [2]: 80.8 µM | TGI [3]: 13.4 µM | TGI [4]: 193 µM | TGI [5]: > 468 µM | TGI [6]: 31.7 µM | TGI [7]: 64 µM | TGI [8]: 158 µM | TGI [9]: 29.3 µM | TGI [10]: 200 µM

CN(C)c1ccc(/C=C2\C[N+](C)(C)C/C(=C\c3ccc(N(C)C)cc3)C2=O)cc1
TGI [1]: 43.2 µM | TGI [2]: > 59 µM | TGI [3]: 37.4 µM | TGI [4]: > 100 µM | TGI [5]: > 100 µM | TGI [6]: 23.6 µM | TGI [7]: 32.4 µM | TGI [8]: 90.8 µM | TGI [9]: 66.2 µM | TGI [10]: 54.4 µM

NS(=O)(=O)c1ccc(-n2nc(-c3ccc(Br)cc3)ccc2=O)cc1
GI50 [1]: > 10 µM | TGI [1]: > 10 µM | GI50 [2]: > 10 µM | TGI [2]: > 10 µM | GI50 [3]: > 10 µM | TGI [3]: > 10 µM | GI50 [4]: > 10 µM | TGI [4]: > 10 µM | GI50 [5]: > 10 µM | TGI [5]: > 10 µM | GI50 [6]: > 10 µM | TGI [6]: > 10 µM | GI50 [7]: > 10 µM | TGI [7]: > 10 µM | GI50 [8]: > 10 µM | TGI [8]: > 10 µM | GI50 [9]: > 10 µM | TGI [9]: > 10 µM | GI50 [10]: > 10 µM | TGI [10]: > 10 µM

Cn1cc(C2=C(c3ccc(OC[C@@H](O)CO)cc3)C(=O)NC2=O)c2ccccc21
GI50 [1]: > 25 µM | TGI [1]: > 25 µM | GI50 [2]: > 25 µM | TGI [2]: > 25 µM | GI50 [3]: > 25 µM | TGI [3]: > 25 µM | GI50 [4]: > 25 µM | TGI [4]: > 25 µM | GI50 [5]: > 25 µM | TGI [5]: > 25 µM | GI50 [6]: > 25 µM | TGI [6]: > 25 µM | GI50 [7]: > 25 µM | TGI [7]: > 25 µM | GI50 [8]: > 25 µM | TGI [8]: > 25 µM | GI50 [9]: > 25 µM | TGI [9]: > 25 µM | GI50 [10]: > 25 µM | TGI [10]: > 25 µM

O=C1NC(=O)C2C(=O)NC(=O)C1C2(c1ccccc1)c1ccc(Cl)cc1 (stereo not given)
TGI [1]: > 100 µM | TGI [2]: > 100 µM | TGI [3]: > 100 µM | TGI [4]: > 100 µM | TGI [5]: > 100 µM | TGI [6]: > 100 µM | TGI [7]: > 100 µM | TGI [8]: > 100 µM | TGI [9]: > 100 µM | TGI [10]: > 100 µM

CCOC(=O)c1cc(-c2ccc([N+](=O)[O-])cc2)n(-c2ccc(C(=O)O)c(O)c2)c1C
GI50 [1]: 4.76 µM | TGI [1]: 16.8 µM | GI50 [2]: 4.16 µM | TGI [2]: 17 µM | GI50 [3]: 3.81 µM | TGI [3]: 14.4 µM | GI50 [4]: 3.02 µM | TGI [4]: 12.2 µM | GI50 [5]: 4.11 µM | TGI [5]: 19.7 µM | GI50 [6]: 1.64 µM | TGI [6]: 3.43 µM | GI50 [7]: 9.2 µM | TGI [7]: 22 µM | GI50 [8]: 11.2 µM | TGI [8]: 33.9 µM | GI50 [9]: 4.69 µM | TGI [9]: 19.6 µM | GI50 [10]: 3.18 µM | TGI [10]: 13.7 µM
